Tested on: Rattus norvegicus
Conditions: short-term, duration: 28 days, oral, gavage, Sprague-Dawley

Q: What does the source list for O=S(=O)([O-])C(F)(F)C(F)(F)C(F)(F)C(F)(F)C(F)(F)C(F)(F)F.[K+] [Potassium perfluorohexanesulfonate]?
A: NOEL (F, Clinical chemistry_Alanine aminotransferase): 50 mg/kg-day; NOEL (F, Clinical chemistry_Albumin): 50 mg/kg-day; NOEL (F, Clinical chemistry_Albumin/globulin ratio): 50 mg/kg-day; NOEL (F, Clinical chemistry_Alkaline phosphatase): 50 mg/kg-day; NOEL (F, Clinical chemistry_Aspartate aminotransferase): 50 mg/kg-day; NOEL (F, Clinical chemistry_Cholesterol): 50 mg/kg-day; NOEL (F, Clinical chemistry_Direct bilirubin): 50 mg/kg-day; LOEL (F, Clinical chemistry_Free thyroxine): 12.5 mg/kg-day; NOEL (F, Clinical chemistry_Globulin): 50 mg/kg-day; NOEL (F, Clinical chemistry_Sorbitol dehydrogenase): 50 mg/kg-day; NOEL (F, Clinical chemistry_Testosterone): 50 mg/kg-day; NOEL (F, Clinical chemistry_Thyroid stimulating hormone): 50 mg/kg-day; NOEL (F, Clinical chemistry_Total bile acids): 50 mg/kg-day; NOEL (F, Clinical chemistry_Total bilirubin): 50 mg/kg-day; NOEL (F, Clinical chemistry_Total protein): 50 mg/kg-day; LOEL (F, Clinical chemistry_Total thyroxine): 6.25 mg/kg-day; NOEL (F, Clinical chemistry_Total triiodothyronine): 50 mg/kg-day; NOEL (F, Clinical chemistry_Triglycerides): 50 mg/kg-day; NOEL (F, Gene expression_Acox1): 50 mg/kg-day; LOEL (F, Gene expression_Cyp2b1): 3.12 mg/kg-day; LOEL (F, Gene expression_Cyp2b2): 3.12 mg/kg-day; NOEL (F, Gene expression_Cyp4a1): 50 mg/kg-day; NOEL (F, Hematology_Erythrocytes): 50 mg/kg-day; NOEL (F, Hematology_Hematocrit): 50 mg/kg-day; NOEL (F, Hematology_Hemoglobin): 50 mg/kg-day; NOEL (F, Hematology_Leukocytes): 50 mg/kg-day; NOEL (F, Hematology_Reticulocytes): 50 mg/kg-day; NOEL (F, Hematology_S. neutrophils): 50 mg/kg-day; NOEL (F, Nonneoplastic effects_Bone marrow - Hypocellularity): 50 mg/kg-day; NOEL (F, Nonneoplastic effects_Kidney - Papilla, necrosis): 50 mg/kg-day; NOEL (F, Nonneoplastic effects_Liver - Hepatocyte, cytoplasmic alteration): 50 mg/kg-day; NOEL (F, Nonneoplastic effects_Liver - Hepatocyte, hypertrophy): 50 mg/kg-day; NOEL (F, Nonneoplastic effects_Liver - Hepatocyte, vacuolization cytoplasmic): 50 mg/kg-day; NOEL (F, Nonneoplastic effects_Liver - Necrosis): 50 mg/kg-day; LOEL (F, Nonneoplastic effects_Nose - Olfactory epithelium, degeneration): 50 mg/kg-day; LOEL (F, Nonneoplastic effects_Nose - Olfactory epithelium, hyperplasia): 50 mg/kg-day; NOEL (F, Nonneoplastic effects_Nose - Olfactory epithelium, necrosis): 50 mg/kg-day; NOEL (F, Nonneoplastic effects_Spleen - Extramedullary hematopoiesis, decreased): 50 mg/kg-day; NOEL (F, Nonneoplastic effects_Stomach, forestomach - Epithelium, hyperplasia): 50 mg/kg-day; NOEL (F, Nonneoplastic effects_Thymus - Atrophy): 50 mg/kg-day; NOEL (F, Organ weights_Heart - Absolute): 50 mg/kg-day; NOEL (F, Organ weights_Heart - Relative): 50 mg/kg-day; LOEL (F, Organ weights_Liver - Absolute): 3.12 mg/kg-day; LOEL (F, Organ weights_Liver - Relative): 3.12 mg/kg-day; NOEL (F, Organ weights_Lung - Absolute): 50 mg/kg-day; NOEL (F, Organ weights_Lung - Relative): 50 mg/kg-day; LOEL (F, Organ weights_R. adrenal gland - Absolute): 12.5 mg/kg-day; LOEL (F, Organ weights_R. adrenal gland - Relative): 50 mg/kg-day; NOEL (F, Organ weights_R. kidney - Absolute): 50 mg/kg-day; NOEL (F, Organ weights_R. kidney - Relative): 50 mg/kg-day; NOEL (F, Organ weights_Spleen - Absolute): 50 mg/kg-day; NOEL (F, Organ weights_Spleen - Relative): 50 mg/kg-day; NOEL (F, Organ weights_Thymus - Absolute): 50 mg/kg-day; NOEL (F, Organ weights_Thymus - Relative): 50 mg/kg-day; NOEL (F, Reproductive toxicity_Altered estrous cyclicity): 50 mg/kg-day; NOEL (F, Survival rates): 50 mg/kg-day; NOEL (F, body weight): 50 mg/kg-day; NOEL (M, Clinical chemistry_Alanine aminotransferase): 10 mg/kg-day; NOEL (M, Clinical chemistry_Albumin): 10 mg/kg-day; LOEL (M, Clinical chemistry_Albumin/globulin ratio): 10 mg/kg-day; NOEL (M, Clinical chemistry_Alkaline phosphatase): 10 mg/kg-day; NOEL (M, Clinical chemistry_Aspartate aminotransferase): 10 mg/kg-day; LOEL (M, Clinical chemistry_Cholesterol): 1.25 mg/kg-day; NOEL (M, Clinical chemistry_Direct bilirubin): 10 mg/kg-day; LOEL (M, Clinical chemistry_Free thyroxine): 0.625 mg/kg-day; LOEL (M, Clinical chemistry_Globulin): 10 mg/kg-day; NOEL (M, Clinical chemistry_Sorbitol dehydrogenase): 10 mg/kg-day; NOEL (M, Clinical chemistry_Testosterone): 10 mg/kg-day; NOEL (M, Clinical chemistry_Thyroid stimulating hormone): 10 mg/kg-day; NOEL (M, Clinical chemistry_Total bile acids): 10 mg/kg-day; NOEL (M, Clinical chemistry_Total bilirubin): 10 mg/kg-day; NOEL (M, Clinical chemistry_Total protein): 10 mg/kg-day; LOEL (M, Clinical chemistry_Total thyroxine): 0.625 mg/kg-day; LOEL (M, Clinical chemistry_Total triiodothyronine): 0.625 mg/kg-day; LOEL (M, Clinical chemistry_Triglycerides): 2.5 mg/kg-day; LOEL (M, Gene expression_Acox1): 5 mg/kg-day; LOEL (M, Gene expression_Acyl-CoA oxidase): 5 mg/kg-day; LOEL (M, Gene expression_Cyp2b1): 1.25 mg/kg-day; LOEL (M, Gene expression_Cyp2b2): 0.625 mg/kg-day; LOEL (M, Gene expression_Cyp4a1): 1.25 mg/kg-day; NOEL (M, Hematology_Erythrocytes): 10 mg/kg-day; NOEL (M, Hematology_Hematocrit): 10 mg/kg-day; NOEL (M, Hematology_Hemoglobin): 10 mg/kg-day; NOEL (M, Hematology_Leukocytes): 10 mg/kg-day; LOEL (M, Hematology_Reticulocytes): 1.25 mg/kg-day; NOEL (M, Hematology_S. neutrophils): 10 mg/kg-day; NOEL (M, Nonneoplastic effects_Bone marrow - Hypocellularity): 10 mg/kg-day; NOEL (M, Nonneoplastic effects_Kidney - Papilla, necrosis): 10 mg/kg-day; NOEL (M, Nonneoplastic effects_Liver - Hepatocyte, cytoplasmic alteration): 10 mg/kg-day; LOEL (M, Nonneoplastic effects_Liver - Hepatocyte, hypertrophy): 2.5 mg/kg-day; NOEL (M, Nonneoplastic effects_Liver - Hepatocyte, vacuolization cytoplasmic): 10 mg/kg-day; NOEL (M, Nonneoplastic effects_Liver - Necrosis): 10 mg/kg-day; NOEL (M, Nonneoplastic effects_Nose - Olfactory epithelium, degeneration): 10 mg/kg-day; NOEL (M, Nonneoplastic effects_Nose - Olfactory epithelium, hyperplasia): 10 mg/kg-day; NOEL (M, Nonneoplastic effects_Nose - Olfactory epithelium, inflammation, suppurative): 10 mg/kg-day; NOEL (M, Nonneoplastic effects_Nose - Olfactory epithelium, necrosis): 10 mg/kg-day; NOEL (M, Nonneoplastic effects_Spleen - Extramedullary hematopoiesis, decreased): 10 mg/kg-day; NOEL (M, Nonneoplastic effects_Stomach, forestomach - Epithelium, hyperplasia): 10 mg/kg-day; NOEL (M, Nonneoplastic effects_Thymus - Atrophy): 10 mg/kg-day; NOEL (M, Organ weights_Heart - Absolute): 10 mg/kg-day; NOEL (M, Organ weights_Heart - Relative): 10 mg/kg-day; LOEL (M, Organ weights_Liver - Absolute): 1.25 mg/kg-day; LOEL (M, Organ weights_Liver - Relative): 1.25 mg/kg-day; NOEL (M, Organ weights_Lung - Absolute): 10 mg/kg-day; NOEL (M, Organ weights_Lung - Relative): 10 mg/kg-day; LOEL (M, Organ weights_R. adrenal gland - Absolute): 5 mg/kg-day; LOEL (M, Organ weights_R. adrenal gland - Relative): 2.5 mg/kg-day; NOEL (M, Organ weights_R. kidney - Absolute): 10 mg/kg-day; LOEL (M, Organ weights_R. kidney - Relative): 10 mg/kg-day; NOEL (M, Organ weights_Spleen - Absolute): 10 mg/kg-day; NOEL (M, Organ weights_Spleen - Relative): 10 mg/kg-day; NOEL (M, Organ weights_Thymus - Absolute): 10 mg/kg-day; NOEL (M, Organ weights_Thymus - Relative): 10 mg/kg-day; NOEL (M, Reproductive toxicity_Altered sperm parameters): 10 mg/kg-day; NOEL (M, Survival rates): 10 mg/kg-day; NOEL (M, body weight): 10 mg/kg-day

— EPA's ToxValDB 9.5
